What all share (assay type): in vivo
For one assay, the system named is crop plants. Description: Crop plant tolerance (greenhouse, pre- and post-emergence). The settings on record: visual scoring four to five weeks after application. On the procedure: In further greenhouse experiments, seeds of a relatively large number of crop plants and weeds are placed in sandy loam and covered with soil. Some of the pots are treated immediately as described in Section 1, while the remaining pots are placed in the greenhouse until the plants have developed two to three real leaves, and they are then sprayed with various dosages of substances of the formula (I) according to invention as described in Section 2. Four to five weeks after the application and standing time in the greenhouse, it is found by means of visual scoring that the compounds according to the invention leave dicotyledonous crops such as, for example, soybeans, cotton, oilseed rape, sugar beet and potatoes unharmed when applied pre- and post-emergence, even at high rates of active compound. In addition, some substances also leave graminaceous crops such as, for example, barley, wheat, rye, sorghum, corn or rice, unharmed.

Assay [1] deals with monocotyledonous and dicotyledonous weeds. Description: Post-emergence herbicidal action (greenhouse pot test). The following applies: post-emergence method; application rate of 0.5 kg or less of active substance per hectare; scored after approx. 3 to 4 weeks; Sinapis alba, Echinochloa crus-galli, Lolium multiflorum, Chrysanthemum segetum, Setaria spp., Abutilon theophrasti, Amaranthus retroflexus, Panicum miliaceum, Avena sativa. On the procedure:
Seeds or rhizone pieces of monocotyledonous and dicotyledonous weeds are placed in sandy loam in plastic pots, covered with soil and grown in the greenhouse under good growth conditions. Three weeks after sowing, the test plants are treated at the three-leaf stage. Various dosages of the compounds according to the invention, which are formulated as wettable powders or emulsion concentrates, are sprayed onto the green plant parts at an application rate of 600 to 800 l of water per ha (converted), and after the test plants have been left to stand in the greenhouse for approx. 3 to 4 weeks under optimum growth conditions, the effect of the preparations is scored visually by comparison with untreated controls. The compositions according to the invention also have good herbicidal post-emergence activity against a broad spectrum of economically important weed grasses and broad-leaved weeds.

The test system of assay [2] is harmful plants which are typical for rice crops. Description: Action against harmful plants in rice (paddy rice conditions). Note: test concentration or dose not given here. The settings on record: applied to the paddy water; approximately three weeks after application; Cyperus monti, Echinochloa crus-galli, Eleocharis acicularis, Sagittaria pygmaea. On the procedure:
Transplanted and seeded rice and typical rice weeds are grown in the greenhouse until they have reached the three-leaf stage (Echinochloa 1.5-leaves) under paddy rice conditions (flooding level of the water: 2-3 cm) in closed plastic pots. They are then treated with the compounds according to the invention. To this end, the formulated active substances are suspended, dissolved or emulsified in water and applied to the paddy water of the test plants at various dosages by application by pouring.
After the treatment has been carried out in this way, the test plants are placed into the greenhouse under optimum growth conditions and are kept in this way over the entire experimental period.

For assay [3], the system named is monocotyledonous and dicotyledonous weed plants. Description: Pre-emergence herbicidal action (greenhouse pot test). The following applies: pre-emergence method; application rate of 0.5 kg and less of active substance per hectare; Sinapis alba, Chrysanthemum segetum, Avena sativa, Stellaria media, Echinochloa crus-galli, Lolium multiflorum, Setaria spp., Abutilon theophrasti, Amaranthus retrofluxus, Panicum miliaceum. The source says: Seeds or rhizome pieces of monocotyledonous and dicotyledonous weed plants are placed in sandy loam in plastic pots and covered with soil. The compounds according to the invention, which are formulated in the form of wettable powders or emulsion concentrates, are then applied to the surface of the soil cover as aqueous suspension or emulsion at various dosages with an application rate of 600 to 800 l of water/ha (converted).
After the treatment, the pots are placed into a greenhouse and kept under good growth conditions for the weeds. The plant or emergence damage is scored visually after the untreated controls have emerged. As shown by the test results, the compounds according to the invention have good herbicidal pre-emergence activity against a broad spectrum of weed grasses and broad-leaved weeds.

For `CC1Cc2ccc(F)cc2C1Nc1ncnc(NC(=O)CCl)n1` (centres unmarked) [Example 286], the “selectivity (crop plants versus weeds)” value with crop plants is “in some cases high selectivity”. For the same molecule, the “herbicidal action against harmful plants, scored visually” value in assay [1] and in assay [3] was “very good herbicidal action” each time. Further, in assay [2], the “herbicidal action against harmful plants typical for rice crops, scored visually” value is on record as “very good herbicidal action”.

`Nc1ncnc(NC2CCOc3ccc(F)cc32)n1` (centres unmarked) [Example 289]: the “selectivity (crop plants versus weeds)” value in the assay with crop plants is on record as “in some cases high selectivity”. For the same molecule, the “herbicidal action against harmful plants, scored visually” value in assay [1] and in assay [3] was “very good herbicidal action” in each case. Also, in assay [2], the “herbicidal action against harmful plants typical for rice crops, scored visually” value is “very good herbicidal action”.

Values taken from patent publication US7479471B2, “2-Amino-4-bicyclylamino-6H-1,3,5-triazines, processes for their preparation and their use as herbicides and plant growth regulators” (Bayer CropScience GmbH, priority 2002, dated 2009).
